Measured values reported in patent US9469644B2, “Inhibitors of Bruton's tyrosine kinase” (Hoffmann-La Roche Inc., priority 2013, dated 2016).

biological target: Bruton's Tyrosine Kinase (BTK), inactivated state (Homo sapiens (Human), UniProt Q06187); experiment: BTK inhibition TR-FRET competition assay; type: binding; details: TR-FRET competition with Kinase Tracer 178, 18-24 h at 14° C.
Procedure: This BTK competition assay measures compound potency (IC50) for the inactivated state of Bruton's Tyrosine Kinase using FRET (Förster/Flouresence Resonance Energy Transfer) technology. The BTK-Eu complex was incubated on ice one hour prior to use at a starting concentration of 50 nM BTK-BioeaseTM: 10 nM Eu-streptavidin (Perkin-Elmer Catalog# AD0062). The assay buffer consisted of 20 mM HEPES (pH 7.15), 0.1 mM DTT, 10 mM MgCl2, 0.5 mg/ml BSA with 3% Kinase Stabilizer (Fremont Biosolutions, Catalog #STB-K02). After 1 h, the reaction mixture from above was diluted 10 fold in assay buffer to make 5 nM BTK: 1 nM Eu-Streptavidin complex (donor fluorophore). 18 μl of a mixture of 0.11 nM BTK-Eu and 0.11 nM Kinase Tracer 178 (Invitrogen, Catalog #PV5593,) with BTK-Eu alone as no negative control, was then dispensed into 384-well flat bottom plates (Greiner, 784076). Compounds to be tested in assay were prepared as 10× concentrations and serial dilution in half-log increments was performed in DMSO so as to generate 10 point curves. To initiate the FRET reaction, compounds prepared as 10× stock in DMSO was added to the plates and the plates were incubated 18-24 h at 14° C. After the incubation the plates were read on a BMG Pherastar Fluorescent plate reader (or equivalent) and used to measure the emission energy from the europium donor fluorophore (620 nm emission) and the FRET (665 nm emission). The negative control well values were averaged to obtain the mean minimum. The positive “no inhibitor” control wells were averaged to obtain the mean maximum. […] The mean IC50 and standard deviation will be derived from duplicate curves (singlet inhibition curves from two independent dilutions) using Microsoft Excel.

Sequence of Bruton's Tyrosine Kinase (BTK), inactivated state (Q06187 whole entry): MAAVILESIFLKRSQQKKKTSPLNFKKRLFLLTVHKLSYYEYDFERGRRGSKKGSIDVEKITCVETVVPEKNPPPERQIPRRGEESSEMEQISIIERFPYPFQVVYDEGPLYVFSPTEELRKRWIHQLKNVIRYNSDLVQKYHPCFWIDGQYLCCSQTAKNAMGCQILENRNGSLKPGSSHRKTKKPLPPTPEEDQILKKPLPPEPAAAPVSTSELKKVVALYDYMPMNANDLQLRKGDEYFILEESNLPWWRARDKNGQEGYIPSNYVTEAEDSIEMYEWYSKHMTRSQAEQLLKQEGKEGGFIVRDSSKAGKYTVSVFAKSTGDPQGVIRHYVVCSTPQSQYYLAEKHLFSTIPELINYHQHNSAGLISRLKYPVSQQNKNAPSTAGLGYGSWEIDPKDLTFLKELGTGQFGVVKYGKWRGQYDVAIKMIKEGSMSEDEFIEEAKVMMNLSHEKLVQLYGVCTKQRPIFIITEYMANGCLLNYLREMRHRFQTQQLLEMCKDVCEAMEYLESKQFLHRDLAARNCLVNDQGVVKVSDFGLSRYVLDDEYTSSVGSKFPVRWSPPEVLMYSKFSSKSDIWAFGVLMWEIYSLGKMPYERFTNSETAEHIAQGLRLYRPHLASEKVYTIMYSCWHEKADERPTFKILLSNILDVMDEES

SMILES | IC50
Cn1cc(Nc2nc(NC3CCCCC3)c3nc[nH]c3n2)cn1 [Compound 3, N*6*-Cyclohexyl-N*2*-(1-methyl-1H-pyrazol-4-yl)-9H-purine-2,6-diamine] | 2.82 µM
CC1CCCC(Nc2nc(Nc3cnn(C)c3)nc3[nH]cnc23)C1 (stereo not shown) [Compound 4, N*6*-(3-Methyl-cyclohexyl)-N*2*-(1-methyl-1H-pyrazol-4-yl)-9H-purine-2,6-diamine] | 40.6 µM
CC(C)(C)OC(=O)NC1CCCC(C(=O)O)C1 (stereo not shown) [Compound 7] | 0.109 µM

Continued, values first:

IC50 | SMILES
9.57 µM | CC(C)(C)c1ccc(C(=O)NC2CCCC(Nc3ncnc4[nH]cnc34)C2)cc1 (stereo not shown) [Compound 1, 4-tert-Butyl-N-[3-(7H-purin-6-ylamino)-cyclohexyl]-benzamide]
100 µM | O=C(NCc1cccc(Cl)c1)C1CCCC(Nc2ncnc3[nH]cnc23)C1 (stereo not shown) [Compound 2, 3-(9H-Purin-6-ylamino)-cyclohexanecarboxylic acid 3-chloro-benzylamide]
0.0569 µM | Cn1cc(Nc2nc(NC3CCCC(NC(=O)c4ccc(C(C)(C)C)cc4)C3)c3nc[nH]c3n2)cn1 (stereo not shown) [Compound 5, 4-tert-butyl-N-{3-[2-(1-methyl-1H-pyrazol-4-ylamino)-9H-purin-6-ylamino]-cyclohexyl}-benzamide]
0.0453 µM | O=C(NC1CCCC(Nc2ncnc3[nH]cnc23)C1)c1ccccc1 (stereo not shown) [Compound 6]
